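Cultured in 96-well plates, cells were exposed to test compound for 48 hours across five concentrations. Definition used: TGI = concentration required for complete inhibition of growth.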
Columns and labels:
Assay in all cases: NCI anticancer screen, dose series, 48 h
MALME-3M melanoma = tested on: MALME-3M melanoma
UACC-62 melanoma = tested on: UACC-62 melanoma
NCI-H23 lung = tested on: NCI-H23 lung
UACC-257 melanoma = tested on: UACC-257 melanoma
OVCAR-5 ovarian = tested on: OVCAR-5 ovarian
ACHN renal = tested on: ACHN renal
LOX IMVI melanoma = tested on: LOX IMVI melanoma
OVCAR-4 ovarian = tested on: OVCAR-4 ovarian
T-47D breast = tested on: T-47D breast
SK-MEL-5 melanoma = tested on: SK-MEL-5 melanoma
MOLT-4 leukemia = tested on: MOLT-4 leukemia
SR leukemia = tested on: SR leukemia
SK-MEL-2 melanoma = tested on: SK-MEL-2 melanoma
SNB-19 CNS = tested on: SNB-19 CNS
CCRF-CEM leukemia = tested on: CCRF-CEM leukemia
SF-295 CNS = tested on: SF-295 CNS
EKVX NSCLC = tested on: EKVX NSCLC
SF-268 CNS = tested on: SF-268 CNS
IGROV1 ovarian = tested on: IGROV1 ovarian
PC-3 prostate = tested on: PC-3 prostate

Row | SMILES | TGI (MALME-3M melanoma) | TGI (UACC-62 melanoma) | TGI (NCI-H23 lung) | TGI (UACC-257 melanoma) | TGI (OVCAR-5 ovarian) | TGI (ACHN renal) | TGI (LOX IMVI melanoma) | TGI (OVCAR-4 ovarian) | TGI (T-47D breast) | TGI (SK-MEL-5 melanoma) | TGI (MOLT-4 leukemia) | TGI (SR leukemia) | TGI (SK-MEL-2 melanoma) | TGI (SNB-19 CNS) | TGI (CCRF-CEM leukemia) | TGI (SF-295 CNS) | TGI (EKVX NSCLC) | TGI (SF-268 CNS) | TGI (IGROV1 ovarian) | TGI (PC-3 prostate)
1 | Cc1ccc(NN=NCCCCN)cc1 | > 100 µM | > 100 µM | > 100 µM | > 100 µM | > 100 µM | > 100 µM | > 100 µM | > 100 µM | > 100 µM | > 100 µM | > 100 µM | > 100 µM | > 100 µM | > 100 µM | > 100 µM | > 100 µM | > 100 µM | > 100 µM | > 100 µM | –
2 | Cc1ccc2ccccc2c1NC1=NCCO1 | > 100 µM | > 100 µM | > 100 µM | > 100 µM | > 100 µM | > 100 µM | – | > 100 µM | > 100 µM | > 100 µM | > 100 µM | > 100 µM | – | > 100 µM | > 100 µM | > 100 µM | > 100 µM | > 100 µM | > 100 µM | –
3 | CC(=O)O[C@H]1C(=O)[C@@]2(C)[C@H]([C@H](OC(=O)c3cccc(C(F)(F)F)c3)[C@]3(O)C[C@H](OC(=O)[C@H](O)[C@@H](NC(=O)c4ccccc4)c4ccccc4)C(C)=C1C3(C)C)[C@]1(OC(C)=O)CO[C@@H]1C[C@@H]2O | 10.5 µM | 8 µM | > 25 µM | 8.27 µM | > 10.7 µM | > 9.46 µM | – | > 18.4 µM | > 25 µM | 4.33 µM | 3.57 µM | 3.72 µM | – | > 25 µM | 0.368 µM | 13.3 µM | > 25 µM | > 25 µM | > 23 µM | –
4 | c1cc(Sc2nc(Sc3ccncc3)nc(Sc3ccncc3)n2)ccn1 | > 100 µM | > 100 µM | > 100 µM | > 100 µM | > 100 µM | > 100 µM | > 100 µM | > 100 µM | > 100 µM | > 100 µM | > 100 µM | – | > 100 µM | > 100 µM | > 100 µM | > 100 µM | > 100 µM | > 100 µM | > 100 µM | > 100 µM
5 | O=C1CC(O)c2c(Br)sc(Br)c21 (centres undefined) | 32.9 µM | 26.3 µM | 57.7 µM | 17.4 µM | 38.6 µM | 29.7 µM | 20.4 µM | – | 30.5 µM | 34.5 µM | 4.61 µM | 29.6 µM | 28 µM | 34.9 µM | – | 32 µM | 27.7 µM | 43.8 µM | 31.9 µM | 25.9 µM
6 | CC(=O)Nc1ccc(NC(=O)c2c(Cl)c(Cl)c(Cl)c(Cl)c2-c2nc3ccccc3[nH]2)cc1 | > 100 µM | > 100 µM | > 100 µM | > 100 µM | > 100 µM | > 100 µM | – | > 100 µM | > 100 µM | > 100 µM | 98.7 µM | > 100 µM | – | > 100 µM | > 100 µM | > 100 µM | > 100 µM | > 100 µM | > 100 µM | > 100 µM
7 | c1ccc2c(c1)nc1n2CCCn2ccnc2-1 | > 100 µM | > 100 µM | > 100 µM | – | > 100 µM | > 100 µM | > 100 µM | > 100 µM | > 100 µM | > 100 µM | > 100 µM | > 100 µM | > 100 µM | > 100 µM | – | > 100 µM | > 100 µM | > 100 µM | > 100 µM | > 100 µM
8 | CN(C)c1ccc(/C=c2/c3ccccc3n3nc4ccccc4c23)cc1 | > 100 µM | > 100 µM | > 100 µM | > 100 µM | > 100 µM | > 100 µM | > 100 µM | – | 55.4 µM | 73.5 µM | > 100 µM | 25.1 µM | > 100 µM | > 100 µM | 76.5 µM | 70.6 µM | > 100 µM | > 100 µM | > 100 µM | > 100 µM
9 | COc1ccc(C2CC(c3ccccc3)=Nc3c(-c4ccccc4)nnn32)cc1 (centres undefined) | – | > 100 µM | > 100 µM | > 100 µM | > 100 µM | > 100 µM | > 100 µM | – | 59.6 µM | > 100 µM | > 100 µM | > 100 µM | > 100 µM | > 100 µM | > 100 µM | > 100 µM | – | > 100 µM | > 100 µM | > 100 µM
10 | C=C(C)C1Cc2c(cc(O)c3c(=O)c4c(oc23)C(O)Oc2cc(OC)c(OC)cc2-4)O1 (centres undefined) | > 10 µM | > 10 µM | > 10 µM | > 10 µM | > 10 µM | > 10 µM | – | > 10 µM | > 10 µM | – | > 10 µM | > 10 µM | – | > 10 µM | > 10 µM | > 10 µM | > 10 µM | > 10 µM | > 10 µM | > 10 µM
11 | CC(C)(C)c1cc(C(C)(C)C)c(SS(=O)(=O)O)c(O)c1O | > 100 µM | 55.2 µM | > 100 µM | > 100 µM | > 100 µM | > 100 µM | > 100 µM | > 100 µM | > 100 µM | > 100 µM | 0.219 µM | – | 94.5 µM | > 100 µM | > 100 µM | > 100 µM | > 100 µM | > 100 µM | > 100 µM | > 100 µM
12 | FC(F)(Sc1ccccn1)c1nc2ccccc2o1 | > 100 µM | > 100 µM | > 100 µM | > 100 µM | > 100 µM | > 100 µM | – | > 100 µM | > 100 µM | > 100 µM | > 100 µM | > 100 µM | > 100 µM | – | > 100 µM | > 100 µM | – | > 100 µM | > 100 µM | > 100 µM
13 | CC(C)=NN/C(=N\S(=O)(=O)c1ccc(C)cc1)Nc1ccc(Cl)cc1 | > 100 µM | > 100 µM | > 100 µM | > 100 µM | > 100 µM | > 100 µM | > 100 µM | > 100 µM | > 100 µM | > 100 µM | > 100 µM | – | > 100 µM | > 100 µM | > 100 µM | > 100 µM | > 100 µM | > 100 µM | > 100 µM | > 100 µM

From PubChem BioAssay (NCI)
